In data set [1] the test system is d-amphetamine induced hyperactivity in rats. Kind of data set: Amphetamine-induced hyperactivity in the rat (amphetamine antagonism). In kind it is in vivo. The note with it: read-out: Amphetamine antagonism ED50 (mg/kg) ± std. dev. From the text:
Subjects. Male Wistar rats (Taconic, Denmark) weighing 170-240 g are used. […] Eight rats are used at each dose level and in the parallel control group receiving the vehicle to the test compound plus d-amphetamine and the group receiving vehicle injections only.

The subject of a further data set is baseline motility. The data set is described as follows: Baseline motility in mice (vehicle-pretreated, vehicle-challenged). In kind it is in vivo, mouse. The note with it: s.c., Std. Dev. in brackets. As for the experimental part:
Subjects. Male NMRI mice (Charles River) weighing approx. 35 g are used. […] 12 mice are used pr experimental group.
Experimental procedure. All mice are pre-treated once daily for five days with either d-amphetamine sulphate (2.5 mg/kg s.c.) or saline (10 ml/kg). For the 17 days between the last day of pre-treatment and the test day, the animals are kept in their homecage receiving the care as described above. The experiment is performed under normal light conditions in an undisturbed room. The mice are treated with test substance or vehicle and placed individually in the test cages for 30 min. The mice are then challenged with D-amphetamine sulphate (1.25 mg/kg s.c.) or saline (5 ml/kg) and replaced in the test-cage and data acquisition is begun. 5×8 infrared light sources and photocells interspaced by 4 cm monitor the locomotor activity. The light beams cross the cage 1.8 cm above the bottom of the cage.
Administration of compounds.
Data analyses. […] Similarly an ED50 for inhibiting baseline motility is calculated by expressed the motility response in vehicle-pretreated, vehicle-challenged, drug-treated animals relative to the baseline motility response. A therapeutic index value is subsequently calculated by dividing the first ED50 by the second.

Data set [2] relates to social behaviours in the rat Tetradic Encounter test. The data set is described as follows: Rat Tetradic Encounter test. As to conditions: for % of time Agonistic behaviour: sum of defensive and aggressive behaviour.
Description: Subjects. 5 week old male Wistar rats (Harlan, Germany) were used. The animals were housed in groups of four animals per cage and kept under a 12 h/12 h light dark rhythm (start of the dark phase at 2:00 p.m., CET), at 20° C. room temperature and 60% humidity. During the whole study, standard diet and tap water was provided ad libitum.
Experimental procedure. […] Therefore, half of the cage is the home territory of each animal. At test time, the wall is removed from the cage so that the animals can interact with each other for 15 minutes. Both animals are from the same test group. The cage is illuminated by dim red light. The test starts 1 hour after beginning of the dark phase. All animals are marked individually by means of black symbols on their back. Behaviour is registered by video. Each animal is tested once.
Analyses. In both the TE test and the MRI test, the portion of time (%) spent in non-social, friendly, defensive, aggressive or agonistic (sum of defensive and aggressive behaviour) behaviour was compared across the experimental groups against the relevant control group by means of Analysis of Variance (ANOVA) (one-factor).
In data set [3] the test system is conditioned avoidance response. The data set is described as follows: Conditioned avoidance response in rats. It is filed as in vivo, rat. As for the experimental part:
Subjects. Male Wistar rats (Taconic, Denmark) weighing 150 g at the beginning of the study are used. The rats are housed in pairs and maintained on a 12 h light/dark cycle (lights on 06:00). The animals are fed once daily (approx. 6 pellets/rat) in order to keep the rats at 80% of their free-feeding weight. Water is available ad libitum. Temperature (21±1° C.) and relative humidity (55±5%) are automatically controlled.
Experimental procedure. Conditioned avoidance testing is conducted using four automated shuttle-boxes (ENV-010M, MED-Associates) each placed in a sound-attenuated chamber. Each box is divided into two compartments by a partition with an opening. The position of the animal and crossings from one compartment to the other are detected by two photocells placed on either side of the dividing wall. Upon presentation of the conditioned stimuli (CS), tone and light, the animals have 10s to cross to the other compartment of the shuttle-box in order to turn the CS off (end the trial) and avoid the appearance of the unconditioned stimulus (UCS). If the rat remains in the same compartment for more than 10s, the UCS is presented as 0.5 mA scrambled foot-shocks until escape is performed or 10s in maximal duration. The following behavioural variables are evaluated: avoidance (response to CS within 10s); escape (reponse to CS+UCS); escape failures (failure to respond); intertrial crosses and locomotor activity. The rats are habituated to the shuttle-box 3 min before each test session. During training each test session consists of 30 trials with intertrial intervals varying randomly between 20s and 30s. Training is carried out until the rats display an avoidance of 80% or more, on 3 consecutive days. A test is preceded by a pre-test the day before giving rise to a baseline value for each animal, thus the animals serve as their own control. Seven to eight rats are used at each dose level. A parallel control group receiving the vehicle of the test compound is also included.
Administration of compound. […] All compounds are dissolved in a vehicle of 10% 2-hydroxy-propyl-beta-cyclodextrin (isotonic with glucose, pH 5-7).
Statistical analyses. The effects of compounds on avoidance and escape failure behaviours are statistically evaluated by means of two-way repeated measures ANOVA followed by post hoc comparisons (Student-Newman-Keuls Method) when appropriate. P-levels <0.05 are considered statistically significant.

The mark [4] stands for this setting: 2 mg/kg s.c. 30 min before test.
The mark [5] stands for this setting: 10 mg/kg s.c. 30 min before test.
[6] abbreviates: Rattus norvegicus, sc, read-out: % inhibition of avoidance (Std. dev.) Relative to baseline.

Marks after values point to notes of the source that are not given here.

Usually inhibition stands for the share of the control response that was lost under treatment. `CCOC(=O)Nc1ccc(NCc2ccc(F)cc2)cc1N` [Compound 1, reference compound]: the ED50 in data set [1] turned out to be 2.3 mg/kg. In addition, the “Inhibition of baseline motility, ED50” value in the data set on baseline motility is given as 7.6 (1.3) mg/kg. Further, in data set [2] (setting [4]), the “% of time Aggressive behaviour” value was 5.2 % of time, the “% of time Defensive behaviour” value is 7.2 % of time, the “% of time Friendly behaviour” value is reported as 21.9 % of time and the “% of time Non-social behaviour” value is on record as 65.7 % of time. Besides, in data set [2] (setting [4]), the “% of time Agonistic behaviour” value is 12.4 % of time. Further, in data set [2] (setting [5]), the “% of time Aggressive behaviour” value is reported as 2.4 % of time, the “% of time Defensive behaviour” value is 3.7* % of time, the “% of time Friendly behaviour” value is 24.7 % of time and the “% of time Non-social behaviour” value is reported as 69.2 % of time. In addition, the “% of time Agonistic behaviour” value in data set [2] (setting [5]) is 6.1* % of time. For the same molecule, in data set [3] (setting [6]), the inhibition at 5 mg/kg worked out at 1% and the inhibition at 10 mg/kg was 59%. The “Escape failures (effect on motor performance)” value in data set [3] (rats, all tested doses (2.5-10 mg/kg s.c.), data not shown) is reported as “None of the tested doses cause any incidences of escape failures”.
